According to publication PMC10465125 (eLife, 2023):
Read-outs that look alike come from different tables or passages of the source.

Key:
[1] = Cytotoxicity assay (MTT), VeroE6; format: cell-based; conditions: African green monkey, tested concentrations given in μg/ml, read-out: CC50 (median cytotoxic concentration)
Protocol: (§1) The human embryonic kidney cells 293T stably expressing recombinant human ACE2 (293T-ACE2) were maintained in DMEM containing 10% FBS, 1% P/S, and […] hygromycin. The NCI-H460 cell line (human non-small cell lung cancer cells) was preserved in Modified Eagle’s Medium (MEM, Gibco, USA) supplemented with 10% FBS and 1% P/S. The VeroE6 cell line (African green monkey kidney cells) was grown in Dulbecco’s Modified Eagle’s Medium (DMEM, Gibco) supplemented with 10% fetal bovine serum (FBS, Gibco), 1× GlutaMAX (Gibco), and 1% penicillin/streptomycin (P/S, Hyclone, USA). All these cells were cultured at 37°C and 5% CO2. All cell lines are checked annually for mycoplasma contamination, and human cell lines were authenticated through STR profiling.
(§2) […]. The medium was removed, and viable cells were detected with MTT assay (Cyrusbioscience, Taiwan), which was read by absorbance at 570 nm by an ELISA reader. All experiments were performed independently in triplicates and repeated three times.

[2] = test system: SARS-CoV-2 wild-type Spike Vpps; test: microbe, parasite or virus in culture; conditions: Severe acute respiratory syndrome coronavirus 2, Vero C1008, read-out: EC50 (inhibition of SARS-CoV-2 Vpp infection by 50%)
[3] = biological target: SARS-CoV-2 Spike RBD / human ACE2 interaction (UniProt P0DTC2+Q9BYF1); test: Spike protein–ACE2 interaction ELISA assay; format: binding, SARS-CoV-2; human; conditions: doses 0, 50, 100 μg/ml (method b11 says μM), Figure 1A
[4] = Cytotoxicity assay (MTT), NCI-H460; format: cell-based; conditions: human, tested concentrations given in μg/ml, read-out: CC50 (median cytotoxic concentration)
Protocol: as §1, §2

human TMPRSS2 = biological target: T1, human TMPRSS2 (Homo sapiens, UniProt O15393); test: Cell-based TMPRSS2 enzyme activity assay (293T-TMPRSS2 cells, Boc-QAR-AMC)
T1 construct: Flag; host or cells: 293T
T1 sequence (O15393 whole entry): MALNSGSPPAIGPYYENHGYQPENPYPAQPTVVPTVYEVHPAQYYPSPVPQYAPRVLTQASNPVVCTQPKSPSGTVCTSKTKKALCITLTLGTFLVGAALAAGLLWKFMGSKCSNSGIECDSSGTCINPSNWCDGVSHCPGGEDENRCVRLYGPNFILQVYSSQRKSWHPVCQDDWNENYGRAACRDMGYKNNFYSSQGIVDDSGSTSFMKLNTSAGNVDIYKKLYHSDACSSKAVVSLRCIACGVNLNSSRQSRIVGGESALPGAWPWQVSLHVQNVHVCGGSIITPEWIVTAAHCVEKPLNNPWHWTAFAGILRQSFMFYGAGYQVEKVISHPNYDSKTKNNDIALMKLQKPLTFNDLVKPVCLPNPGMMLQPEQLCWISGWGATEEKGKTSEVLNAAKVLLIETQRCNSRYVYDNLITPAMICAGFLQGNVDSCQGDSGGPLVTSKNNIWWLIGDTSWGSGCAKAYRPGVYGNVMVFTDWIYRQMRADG

[5] = test system: SARS-CoV-2 wild-type Spike Vpps; parameters: EC50 (inhibition of SARS-CoV-2 Vpp infection by 50%): unit not given beside the values
[6] = test system: SARS-CoV-2 wild-type Spike Vpps; test: microbe, parasite or virus in culture; conditions: Severe acute respiratory syndrome coronavirus 2, VeroE6/TMPRSS2, read-out: EC50 (inhibition of SARS-CoV-2 Vpp infection by 50%)
[7] = test system: wild-type SARS-CoV-2 Spike Vpps; test: microbe, parasite or virus in culture; conditions: Severe acute respiratory syndrome coronavirus 2, NCI-H460, read-out: EC50 (inhibition of SARS-CoV-2 Vpp infection by 50%)
SARS-CoV-2 Mpro = biological target: T2, SARS-CoV-2 Mpro (Severe acute respiratory syndrome coronavirus 2, UniProt P0DTD1); format: biochemical
T2 construct: the main protease (M^pro/3CL^pro), a chymotrypsin-like protease

[8] = Cytotoxicity assay (MTT), 293T-ACE2; format: cell-based; conditions: human, tested concentrations given in μg/ml, read-out: CC50 (median cytotoxic concentration)
Protocol: as §1, §2

[9] = test system: wild-type SARS-CoV-2 Spike Vpps; test: microbe, parasite or virus in culture; conditions: Severe acute respiratory syndrome coronavirus 2, 293T/ACE2, read-out: EC50 (inhibition of SARS-CoV-2 Vpp infection by 50%)
Mpro of SARS-CoV-2 = conditions: in vitro analysis; ref Zhu and Xie, 2020; cited from earlier work

**Q.** Which results are given for `O=C1O[C@H]2[C@@H]3OC(=O)c4cc(O)c(O)c(O)c4-c4c(O)c(O)c5oc(=O)c6c(c(O)c(O)c7oc(=O)c4c5c76)-c4c(cc(O)c(O)c4O)C(=O)OC[C@H]3OC(O)[C@@H]2OC(=O)c2cc(O)c(O)c(O)c2-c2c1cc(O)c(O)c2O` (mixture of isomers) [Punicalagin, punicalagin]?
**A.** CC50 at 24 h [1]: 84.7 ± 5.55 µg/mL; EC50 [2]: 5.47 ± 1.27 µg/mL; inhibitory activity against the Spike protein–ACE2 interaction [3]: highest inhibitory activity; CC50 at 24 h [4]: 88.4 ± 6.76 µg/mL; IC50 (human TMPRSS2): 31.9 µM; inhibitory activity on TMPRSS2 (human TMPRSS2; Figure 1C, in words): only moderate inhibitory activity; SI (ratio of CC50 to EC50) [5]: 15.49; EC50 [6]: 5.8 ± 1.74 µg/mL; EC50 [7]: 4.65 ± 0.47 µg/mL; inhibition of Mpro enzymatic activity (SARS-CoV-2 Mpro): even stronger inhibitory activity on M^pro than tannic acid and OPCs; CC50 at 24 h [8]: 606 ± 61.1 µg/mL; EC50 [9]: 3.7 ± 2.24 µg/mL

**Q.** Which IC50 (Mpro of SARS-CoV-2) does the source give for `Oc1cc(O)c2c(c1)O[C@H](c1ccc(O)c(O)c1)[C@H](O)[C@H]2c1c(O)cc(O)c2c1O[C@H](c1ccc(O)c(O)c1)[C@H](O)C2` [PB2, procyanidin B2] here?
**A.** 75.3 ± 1.29 µM

**Q.** With tannic acid [reference compound] as the compound, how does the “EC50 (inhibition of SARS-CoV-2 Vpp infection by 50%)” value [5] read?
**A.** 6.91±0.63
